Consider 1 compound from patent US8168656B2, “Indoleacetic acid and indenacetic acid derivatives as therapeutic agents with reduced gastrointestinal toxicity” (Vanderbilt University, priority 2009, dated 2012).

Holding throughout (assay): Time-dependent IC50 COX inhibition assay
Experiment [1] concerns the target T1, mCOX-2^V349L (Mus musculus, UniProt Q05769, V335L).
T1 construct: made in house; host or cells: Sf9 insect cells (baculovirus, pVL1393)
T1 sequence (Q05769 18-604 V335L): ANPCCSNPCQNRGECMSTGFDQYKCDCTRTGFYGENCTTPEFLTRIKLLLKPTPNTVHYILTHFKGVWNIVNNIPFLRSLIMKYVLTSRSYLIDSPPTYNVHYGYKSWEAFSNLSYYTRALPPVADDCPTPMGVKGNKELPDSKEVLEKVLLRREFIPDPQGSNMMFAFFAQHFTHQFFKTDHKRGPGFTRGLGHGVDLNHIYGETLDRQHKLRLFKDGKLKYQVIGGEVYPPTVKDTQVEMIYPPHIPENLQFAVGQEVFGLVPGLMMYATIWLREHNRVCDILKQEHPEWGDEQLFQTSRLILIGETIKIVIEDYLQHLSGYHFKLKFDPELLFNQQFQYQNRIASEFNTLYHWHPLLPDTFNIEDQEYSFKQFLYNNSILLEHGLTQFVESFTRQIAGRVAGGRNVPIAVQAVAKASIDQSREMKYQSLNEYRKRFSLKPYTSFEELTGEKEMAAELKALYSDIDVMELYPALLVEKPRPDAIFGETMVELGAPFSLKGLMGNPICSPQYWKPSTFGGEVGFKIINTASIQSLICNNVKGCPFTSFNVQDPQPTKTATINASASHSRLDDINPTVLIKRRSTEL
The class given is biochemical, murine. On the procedure: (§1) These mutated genes were used to assemble baculoviral constructs for large-scale expression in Sf9 cells. Purification of the expressed COX-2 protein was performed through traditional cellular fractionation and classical column chromatography. Activity or inhibition assays were performed in 100 mM Tris-HCl buffer containing 500 μM phenol, with hematin-reconstituted protein. Quantification of cyclooxygenase activity was performed by monitoring substrate (arachidonate or oxygen) consumption in a thermostatted cuvette at 37° C. using a polarographic electrode with a 5300 oxygen monitor (Yellow Springs Instrument Co. Inc., Yellow Springs, Ohio, United States of America). All inhibitors and substrates were solubilized in dimethyl sulfoxide (DMSO). Activity or inhibition assays were performed in 100 mM Tris-HCl buffer containing 500 μM phenol, with hematin-reconstituted protein. Maximal reaction velocity data were obtained from the linear portion of the oxygen uptake curves, and the data were analyzed by nonlinear regression with Prism 4.0 (GraphPad Software, San Diego, Calif., United States of America).
(§2) Time-dependent inhibition reactions were performed by pre-incubating the inhibitor and enzyme for 17 minutes at 25° C., followed by 3 minutes at 37° C. prior to the addition of 50 μM [1-^14C]-AA for 30 seconds at 37° C. Assays were terminated and analyzed for substrate consumption by thin layer chromatography as previously described (Kalgutkar et al., 2000a).
(§3) Maximal reaction velocity data were obtained from the linear portion of the oxygen uptake curves, and the data were analyzed by nonlinear regression. Instantaneous inhibition assays were performed with substrate and inhibitor added prior the initiation of the reaction by addition of protein. Time-dependent screening assays were performed by pre-incubating the inhibitor and enzyme for 17 minutes at 25° C., followed by 3 minutes at 37° C. prior to the addition of 50 μM [1-^14C]-arachidonic acid (AA) for 30 seconds at 37° C.
(§4) Assays were terminated and analyzed for substrate consumption by thin layer chromatography. […] Time-dependent COX inhibition reactions were pre-incubated at 37° C. for varying lengths of time (0-30 minutes) with various concentrations of inhibitor. All reactions were performed with [1-^14C]-AA for 30 seconds at 37° C.; reactions were terminated and analyzed as described above.
(§5) The COX reaction was allowed to proceed for 30 seconds before termination.

In experiment [2] the target is T2, mCOX-2^V349I (Mus musculus, UniProt Q05769, V335I).
T2 construct: made in house; host or cells: Sf9 insect cells (baculovirus, pVL1393)
T2 sequence (Q05769 18-604 V335I): T1 sequence (Q05769 18-604 V335L) with L318I
The class given is biochemical, murine. To be noted: 20 min pre-incubation, then 50 μM AA for 30 s. On the procedure:
as §1, §2, §3, §4, §5

Experiment [3] concerns the target T3, wild type oCOX-1 (Ovis aries, UniProt P05979).
T3 construct: Ram seminal vesicles were purchased from Oxford Biomedical Research; tissue Oxford Biomedical Research; host or cells: ram seminal vesicles
T3 sequence (P05979 25-600): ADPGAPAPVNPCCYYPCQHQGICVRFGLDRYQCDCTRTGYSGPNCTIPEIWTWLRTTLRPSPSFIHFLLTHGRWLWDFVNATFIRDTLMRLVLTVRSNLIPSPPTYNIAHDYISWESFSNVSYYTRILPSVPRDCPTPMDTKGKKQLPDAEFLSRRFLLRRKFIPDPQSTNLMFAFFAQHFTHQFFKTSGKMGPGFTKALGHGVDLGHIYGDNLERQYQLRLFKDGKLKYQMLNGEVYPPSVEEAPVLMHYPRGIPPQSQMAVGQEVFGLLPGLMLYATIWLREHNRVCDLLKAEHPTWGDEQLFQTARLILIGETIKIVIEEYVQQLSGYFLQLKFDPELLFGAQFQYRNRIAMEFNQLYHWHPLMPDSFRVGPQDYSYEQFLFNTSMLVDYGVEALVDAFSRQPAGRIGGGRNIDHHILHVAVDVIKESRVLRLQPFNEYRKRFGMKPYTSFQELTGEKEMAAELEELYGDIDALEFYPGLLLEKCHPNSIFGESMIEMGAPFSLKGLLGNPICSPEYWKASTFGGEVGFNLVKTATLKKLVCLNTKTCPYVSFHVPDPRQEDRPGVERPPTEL
In kind it is biochemical, ovine. How it is done:
as §1, §2
Maximal reaction velocity data were obtained from the linear portion of the oxygen uptake curves, and the data were analyzed by nonlinear regression. Instantaneous inhibition assays were performed with substrate and inhibitor added prior the initiation of the reaction by addition of protein. […]
Assays were terminated and analyzed for substrate consumption by thin layer chromatography. […] All reactions were performed with [1-^14C]-AA for 30 seconds at 37° C.; reactions were terminated and analyzed as described above. […]

Residue numbers refer to the chain shown, from its start. A value given as a limit tells only on which side of the number the result lay.

As for `COc1ccc2c(c1)c(CC(=O)O)cn2C(=O)c1ccc(Cl)cc1` [DM-INDO, 2-Des-methylindomethacin], the “inhibition in the time-dependent IC50 assay” value in experiment [1] and in experiment [3] (wild type oCOX-1) was “less than 20%” in each case. Besides, the IC50 in experiment [1] (20 min pre-incubation, then 50 μM AA for 30 s) is more than 16 µM; in experiment [2], 3 µM; in experiment [3] (wild type oCOX-1, 20 min pre-incubation, then 50 μM AA for 30 s) it was more than 16 µM. Also, the “inhibition of ovine COX-1” value in experiment [3] (concentrations up to 16 μM) was “does not appear to be inhibited at all”.

One may read the IC50 as the concentration needed to halve the response being measured. The low end stands for higher potency, the high end for lower potency.
